Reference: patent US12012404B2, “Pyrimidoheterocyclic compounds and application thereof” (D3 BIO (WUXI) CO., LTD., priority 2020, dated 2024)
Like-named read-outs stand apart in the source and are kept apart here.

Key:
[1] = Metabolic stability in hepatocytes, beagle dogs; type: in vitro ADME
Procedure: Purpose of the assay: Metabolic stabilities of assay compounds in hepatocytes of CD-1 mice, SD rats, beagle dogs, cynomolgus monkeys, and human were assayed, respectively.
Procedure of the assay: Several 96-well sample precipitation plates were prepared and named T0, T15, T30, T60, T90, T120, TO-MC, T120-MC and blank substrates, respectively. The recovery medium and incubation medium were taken out in advance and placed in a 37° C. water bath for pre-heating. Cryopreserved hepatocytes were removed from the liquid nitrogen tank and immediately immersed in a 37° C. water bath (approximately 90 seconds). After the cryopreserved hepatocytes had thawed and loosened, they were poured into a centrifuge tube containing 40 mL of recovery medium, and the tube was gently inverted to allow the cells to be resuspended in the recovery medium. The cells were centrifuged at 100×g at room temperature for 5 min, and the supernatant was removed. The hepatocytes were resuspended in an appropriate volume of incubation medium, and the cell viability was calculated by Trypan Blue staining method. 198 μL of hepatocyte suspension (0.51×10^6 cells/mL) was added to the preheated incubation plate. For the culture medium control group, 198 μL of hepatocyte-free incubation medium was added to T0-MC and T120-MC incubation plate. All incubation plates were pre-incubated in a 37° C. incubator for 10 minutes. Then 2 μL of working solutions of the assay sample and the control compound were added, respectively, and the mixture was mixed well. The incubation plate was immediately put into the shaker in the incubator, and the reaction was initiated while starting the timer. For each time point of each compound, 2 duplicate samples were prepared. The incubation conditions were 37° C., saturated humidity, and 5% CO2. In the assay system, the final concentration of the assay sample was 1 μM, the final concentration of the control sample was 3 μM, the final concentration of hepatocytes was 0.5×10^6 cells/mL, and the final concentration of the total organic solvent was 0.96%, of which the final concentration of DMSO was 0.1%. At the end of the incubation for the corresponding time point, the incubation plate was taken out, and 25 μL of a mixture of compound and control compound with cells was added to the sample plate containing 125 μL of stop solution (200 ng/mL tolbutamide and labetalol in acetonitrile). For the Blank sample plate, 25 μL of hepatocyte-free incubation medium was added directly. After sealing, all sample plates were shaken on a shaker at 600 rpm for 10 minutes, and then centrifuged at 3220×g for 20 minutes. Supernatants of the assay sample and the control sample were diluted with ultrapure water at a ratio of 1:3. All samples were mixed well and analyzed by LC/MS/MS.

[2] = In vitro stability in liver microsomes, SD rats; type: in vitro ADME; settings: 0.5 mg/mL
Procedure: Purpose of the assay: Metabolic stabilities of the assay compounds in liver microsomes of CD-1 mice, SD rats, beagle dogs, cynomolgus monkeys, and human were assayed, respectively.
Procedure of the assay: Two 96-well incubation plates were prepared and named T60 incubation plate and NCF60 incubation plate, respectively. 445 μL of microsomal working solutions (liver microsomal protein concentration of 0.56 mg/mL) were added to the T60 incubation plate and the NCF60 incubation plate, respectively, and then the above incubation plates were pre-incubated in a 37° C. water bath for about 10 minutes.
After the pre-incubation, 5 μL of working solutions of the assay sample or the control compound were added to the T60 incubation plate and the NCF60 incubation plate, respectively, and the mixture was mixed well. 50 μL of potassium phosphate buffer was added to each well of the NCF60 incubation plate to initiate the reaction. 180 μL of stop solution (200 ng/mL tolbutamide and 200 ng/mL labetalol in acetonitrile) and 6 uL of NADPH regeneration system working solution were added to the T0 stop plate, and 54 μL of sample was transferred from T60 incubation plate to T0 stop plate (generation of TO sample). The reaction was initiated by adding 44 μL of NADPH regeneration system working solution to each well of the T60 incubation plate. Only 54 μL of microsome working solution, 6 uL of NADPH regeneration system working solution and 180 μL of stop solution were added to the Blank plate. Therefore, in samples of the assay compound or the control compound, the final reaction concentration of compound, testosterone, diclofenac and propafenone was 1 μM, the concentration of liver microsomes was 0.5 mg/mL, and the final reaction concentrations of DMSO and acetonitrile in the reaction system were 0.01% (v/v) and 0.99% (v/v), respectively.
After an appropriate time (e.g., 5, 15, 30, 45 and 60 minutes) of incubation, 180 μL of stop solutions (200 ng/mL tolbutamide and 200 ng/mL labetalol in acetonitrile) were added to the sample wells of each stop plate, respectively. 60 μL of sample was removed from the T60 incubation plate to stop the reaction. All sample plates were shaken well and then centrifuged at 3220×g for 20 minutes. Then 80 μL of supernatant was taken out from each well, and diluted in 240 μL of pure water for liquid chromatography-tandem mass spectrometry analysis. All samples were injected and analyzed by liquid chromatography-tandem mass spectrometry.

[3] = Pharmacokinetics by oral administration and intravenous injection in SD rats; type: in vivo; settings: for AUCu: AUC0-last × PPB(Unbound %); for Peak concentration, Cmax, u: Cmax × PPB(Unbound %); for Cmax: read-out: Peak concentration, Cmax; for Vd: SD, iv, 2 mg/kg
Procedure: 1) Assay on the Pharmacokinetics of the Assay Compounds by Oral Administration and Intravenous Injection in SD Rats
The assay compound was mixed with […] (10% hydroxypropyl-β-cyclodextrin) solution. The mixture was vortexed and sonicated to prepare a 1 mg/mL clear solution, which was filtered through a microporous membrane for later use. Male SD rats aged 7 to 10 weeks were selected, and administered candidate compound solutions intravenously or orally. Whole blood was collected for a certain period of time, and prepared to obtain plasma. Drug concentration was analyzed by LC-MS/MS method, and pharmacokinetic parameters were calculated by Phoenix WinNonlin software (Pharsight, USA).

[4] = intravenous injection, 2.0 mg/kg
[5] = oral, 9.7 mg/kg (8B), 9.8 mg/kg (17)
[6] = male, rat, plasma, oral, 9.7 mg/kg (8B), 9.8 mg/kg (17)

## C=C(F)C(=O)N1CCN(c2nc(OCC3CCCN3C)nc3c2COC(c2c(F)c(N)cc(C)c2C(F)(F)F)C3)CC1CC#N.Cl (single isomer, unassigned) [Compound 8B hydrochloride]
[1]; 1 μM
  CLint(hep): <6.4 μL/min/10^6
  CLint(liver): <44 mL/min/kg
  T1/2: >3.613 h
[2]; 1 μM
  CLint(liver): <17.3 mL/min/kg
  CLint(mic): < 9.6 µL/min/mg
  T1/2: >2.42 h
[3]; [4]
  AUC0-last: 0.544 µM·h
  Apparent volume of distribution, Vdss: 17.9 L/kg
  Clearance rate, CL: 85.2 mL/min/kg
  Half-life period, T1/2: 2.8 h
  AUCu: 0.0533 µM·h
[3]; intravenous injection, 2.0 mg/kg, Vdss/PPB(Unbound %)
  Apparent volume of distribution, Vdss, u: 203 L/kg
[3]; [5]
  AUC0-last: 1.211 µM·h
  Bioavailability F: 44.5%
  Time-to-peak, Tmax: 1.5 h
  AUCu: 0.119 µM·h
  Peak concentration, Cmax, u: 21.3 nM
  Cmax: 218 nM

## C=C(F)C(=O)N1CCN(c2nc(OC[C@@]34CCCN3C[C@H](F)C4)nc3c2COC(c2c(F)c(N)cc(C)c2C(F)(F)F)C3)C[C@@H]1CC#N (stereo partly drawn) [Compound 17]
[1]; 1 μM
  CLint(hep): 7.6 μL/min/10^6
[1]; dog, cryopreserved hepatocytes
  half-life at 1 μM: 3.04 h
[1]; dog, cryopreserved hepatocytes, read-out: CLint(liver)
  CLint scaled at 1 μM: 52.3 mL/min/kg
[2]; 1 μM
  CLint(mic): 60.2 µL/min/mg
[2]; rat
  CLint scaled at 1 μM: 108 mL/min/kg
  half-life at 1 μM: 0.383 h
[3]; [4]
  AUCu: 0.0313 µM·h
[3]; male, rat, plasma, intravenous injection, 2.0 mg/kg, Vdss/PPB(Unbound %), read-out: Apparent volume of distribution, Vdss, u
  Vd: 221 L/kg
[3]; male, rat, plasma, intravenous injection, 2.0 mg/kg, read-out: Apparent volume of distribution, Vdss
  Vd: 10.6 L/kg
[3]; male, rat, plasma, intravenous injection, 2.0 mg/kg
  AUC(0-t): 0.653 µM·h
[3]; male, rat, plasma, intravenous injection, 2.0 mg/kg, read-out: Clearance rate, CL
  clearance: 71.5 mL/min/kg
[3]; male, rat, plasma, intravenous injection, 2.0 mg/kg, read-out: Half-life period, T1/2 (converted)
  half-life: 1.9 h
[3]; [6]
  AUC(0-t): 0.995 µM·h
  Cmax: 220 nM
[3]; male, rat, plasma, oral, 9.7 mg/kg (8B), 9.8 mg/kg (17), read-out: Bioavailability F
  bioavailability: 30.5%
[3]; male, rat, plasma, oral, 9.7 mg/kg (8B), 9.8 mg/kg (17), read-out: Time-to-peak, Tmax
  Tmax: 1.5 h
[3]; [5]
  AUCu: 0.0478 µM·h
  Peak concentration, Cmax, u: 10.6 nM
